# What was measured:
# [1] = Solubility of test articles in stock solutions and at final test concentrations; assay type: physicochemical; details: stock solution in DMSO:water (1:1)
# Experimental: (§1) Test articles of stock solutions of daptomycin (Cubist, lot MCB2007) and TR-700 were prepared at 40 times the final target concentration in DMSO:water (1:1). DMSO was added first, the solutions were allowed to stand for 60 minutes and then the water was added. […] The final DMSO concentration was 2.5%. The final drug concentrations in the FIC assay plates were set to bracket the MIC value of each test article for each test organism, unless the strain was totally resistant to the test article.
# [2] = test system: Streptococcus pyogenes 717; experiment: FIC checkerboard broth microdilution; assay type: cell-based
# Experimental: as §1, with “added. TR-700 formed a precipitate above 1280 μg/ml; therefore, this was the highest concentration used.” for “added.”
# (§2) The test organisms were originally received from clinical sources, or from the American Type Culture Collection. Upon receipt in our laboratory, the isolates were streaked onto the appropriate growth medium: Tryptic Soy Agar II (Becton Dickinson, Sparks, Md.) supplemented with 5% defibrinated sheep blood for streptococci, and unsupplemented Tryptic Soy Agar II for all other organisms. Colonies were harvested from these plates and a cell suspension was prepared in Tryptic Soy Broth (Becton Dickinson) containing cryoprotectant. Aliquots were then frozen at −80° C. On the day prior to assay, the frozen seeds of the organisms to be tested in that session were thawed and streaked for isolation onto the appropriate agar medium plates and incubated overnight at 35° C. The test organisms were: • Staphylococcus aureus 2053 (methicillin-resistant) • Enterococcus faecalis 795 (vancomycin-susceptible) • Streptococcus pyogenes 717 • Streptococcus pneumoniae 880 (penicillin-resistant) • Escherichia coli 102 (ATCC 25922)
# (§3) Streptococci were tested in Mueller Hinton II Broth (Becton Dickinson; Lot 7024879 and 7143673) supplemented with 2% lysed horse blood (Cleveland Scientific, Bath, Ohio; Lot H10472). All other organisms were tested in Mueller Hinton II Broth. The broth was prepared at 1.05× normal weight/volume to offset the 5% volume of the drugs in the final test plates.
# (§4) FIC values were determined using a broth microdilution method previously described. See, Sweeney, M T and Zurenko, G E. 2003. In vitro activities of linezolid combined with other antimicrobial agents against staphylococci, enterococci, pneumococci and selected Gram-negative organisms. Antimicrob. Agents Chemother. 47:1902-1906. Automated liquid handlers (Multidrop 384, Labsystems, Helsinki, Finland; Biomek 2000 and Multimek 96, Beckman Coulter, Fullerton Calif.) were used to conduct serial dilutions and liquid transfers.
# (§5) The wells (columns 2-12) of standard 96-well microdilution plates (Falcon 3918) were filled with 150 μL of 50% DMSO using the Multidrop 384. Column 1 wells were filled with 300 μl of the 40× stock solutions. […]
# [3] = test system: Enterococcus faecalis 795 (VSE); experiment: FIC checkerboard broth microdilution; assay type: cell-based; details: agent alone
# Experimental: as §1, with “added. TR-700 formed a precipitate above 1280 μg/ml; therefore, this was the highest concentration used.” for “added.”
# as §2, §3, §4, §5
# [4] = test system: Staphylococcus aureus 2053 (MRSA); experiment: FIC checkerboard broth microdilution; assay type: cell-based; details: agent alone
# Experimental: as §1, with “added. TR-700 formed a precipitate above 1280 μg/ml; therefore, this was the highest concentration used.” for “added.”
# as §2, §3, §4, §5
# [5] = test system: Streptococcus pneumoniae 880; experiment: FIC checkerboard broth microdilution; assay type: cell-based; details: agent alone
# Experimental: as §1, with “added. TR-700 formed a precipitate above 1280 μg/ml; therefore, this was the highest concentration used.” for “added.”
# as §2, §3, §4, §5
compound,measurement,setting,value
"Cn1nnc(-c2ccc(-c3ccc(N4C[C@H](CO)OC4=O)cc3F)cn2)n1 [TR-700, Tedizolid]",concentration above which a precipitate formed,[1],above 1280 μg/ml
same,MIC,[2],0.125 µg/mL
same,MIC,[3],0.5 µg/mL
same,MIC,[4],0.5 µg/mL
same,MIC,[5],0.25 µg/mL
